Converted amounts (≈) assume the structure as drawn. “And” between values parts separate entries of the source, which are not always exact repeats. Identical values can stand only once. Like-named read-outs stand apart in the source and are kept apart here. Numbered stars: 1 amine (or outer) side, 2 acyl side, 3 side chain; on linkers, the order of the positions; unused ones are H or OH. Bridge positions count the residues as written; N and C are the ends. Square brackets hold non-standard residues; d marks the D form. Peptide text beside a SMILES is read from it. * marks the point of attachment. Orn(4R-OH,5R-OH) = O=C([C@H](C[C@@H](O)[C@@H](O)N[*:3])N[*:1])[*:2]; hTyr(3S-OH,4S-OH) = N[C@H](C(=O)O)[C@H](O)[C@@H](O)c1ccc(O)cc1; Pro(3S-OH,4S-Me) = C[C@H]1CN[C@H](C(=O)O)[C@H]1O; Hyp = O=C(O)[C@@H]1C[C@@H](O)CN1; Lauroyl = CCCCCCCCCCCC(=O)*; 4Abz = Nc1ccc(C(=O)O)cc1; Aun = NCCCCCCCCCCC(=O)O; Ava = NCCCCC(=O)O
Tests used:
[1] = test system: fungi; test: Antifungal activity of the cyclic nucleus; assay type: cell-based; details: in words; nucleus lacking the linoleoyl side chain
[2] = test system: Candida albicans A-26; test: Therapeutic activity against Candida albicans A-26 infection in mice; assay type: in vivo; details: A26, sc
Method: The results of in vivo tests to evaluate the effectiveness of the compound of Examples 61-81, 86 and 88 against an infection caused by Candida albicans A-26 in mice are given in Table 7, where activity is measured by the ED50 value (the dose in mg/kg. required to cure 50% of the test animals). Where an ED50 value was not obtained, activity is indicated by the lowest dose at which a significant anti-fungal effect is observed. In this test, groups of male albino mice (specific pathogen free), weighing 18 to 20 grams, are infected intravenously with Candida albicans A-26. The animals are X-irradiated 24 hours prior to infection at about 50 roentgens per minute for 8 minutes (400 total dose) to reduce immune responses to the infecting organism. At 0, 4, and 24 hours post infection each group of mice is given graded doses subcutaneously of the test compound as a suspension in 33% polyethylene glycol-water. The day of death for each animal is recorded.
*Dosage Schedule: 40, 20, 15, and 10 mg/kg. Dosages given 0, 4, and 24
hours post injection as suspension of test compound in 30% PEGH2 O.
Number of mice receiving test compounds at each dosage level: 6 mice per
group. Number of mice in control (untreated) group: 10 mice per group.
**As measured by increase in survival time of treated animals versus
control, calculated by method of Reed V. Mueuch, American J. Hygiene, 493

[3] = test system: Neurospora Crassa 846; test: Agar plate disc diffusion test, zone of inhibition; assay type: cell-based; details: 7 mm disc; for zone of inhibition at 1000 µg/mL: Neurospora crassa
Method: (§3) ^(a) Compounds were tested as suspension in methanol.
(§4) were tested at a concentration of 1 mg/ml by a dipping 7mm disc into the
(§5) suspension and placing it on the agar surface. Incubation: 24-48 hours at

[4] = test system: Trychophyton mentagrophytes #6; test: Agar plate disc diffusion test, MIC per disc; assay type: cell-based; details: 0.01M sodium borate, pH 7.5, 24 hours at 30° C.
Method: (§6) *Compounds were suspended in 0.01M sodium borate solution, pH 7.5.
(§7) compounds were tested at 20 μg/disc at top level and at twofold
(§8) dilutions until end points were reached.

[5] = test system: Candida albicans A-26; test: Agar plate disc diffusion test, MIC per disc; assay type: cell-based; details: 0.01M sodium borate, pH 7.5, 24 hours at 30° C.
Method: as §6, §7, §8

[6] = test system: Trichophyton mentagrophytes; test: Agar plate disc diffusion test, zone of inhibition; assay type: cell-based
Method: as §3, §4, §5

[7] = test system: Saccharomyces pastorianus X-52; test: Agar plate disc diffusion test, zone of inhibition; assay type: cell-based; details: 1 mg/ml suspension in methanol, 7 mm disc, 24-48 hours at 25-37° C.; for zone of inhibition at 1000 µg/mL: Saccharomyces pastorianus, X52, 48 h
Method: as §3, §4, §5

[8] = test system: Candida albicans SBH 28; test: Agar dilution assay; assay type: cell-based
Method: (§1) Tables 4 and 5 give the results of the testing in vitro of the compounds of Examples 61-81 by agar-plate disc-diffusion methods. In Table 4 activity is measured by the size (diameter in mm.) of the observed zone of inhibition of the microorganism produced by the test compound. In Table 5, activity is measured by the minimal inhibitory concentration (MIC) of the substance (μg/disc) required to inhibit growth of the test organism. Table 6 gives the results of the testing in vitro of the N-(n-dodecanoyl)-p-aminobenzoyl derivative of A30912A nucleus (Formula III, R^1 is N-(dodecanoyl)-p-aminobenzoyl) against five strains of Candida albicans by the agar dilution method. In Table 6 activity is measured by the minimal inhibitory concentration (MIC) of the substance (μg/ml) required to inhibit the test organism.
(§2) In vitro activity of the N-(n-dodecanoyl)-p-aminobenzoyl (Example 64) and the N-(n-dodecanoyl)-5-amino-n-pentanoyl (Example 62) derivatives of A-30912A nucleus against 5 strains of Candida albicans by the agar dilution assay.

[9] = test system: Candida albicans SBH 31; test: Agar dilution assay; assay type: cell-based
Method: as §1, §2

[10] = test system: Candida albicans SBH 29; test: Agar dilution assay; assay type: cell-based
Method: as §1, §2

[11] = test system: Candida albicans SBH 16; test: Agar dilution assay; assay type: cell-based
Method: as §1, §2

[12] = test system: Candida albicans A26; test: Agar dilution assay; assay type: cell-based
Method: as §1, §2

[13] = test system: Candida albicans A-26; test: Agar plate disc diffusion test, zone of inhibition; assay type: cell-based; details: 1 mg/ml suspension in methanol, 7 mm disc, 24-48 hours at 25-37° C., no regrowth mark
Method: as §3, §4, §5

[14] = mouse, in vivo, 416 mg/kg, 240 min
Method: (§9) In this test, mice are gavaged with a dose of 416 mg/kg of the test compound suspended in 33% PEG 400-water. At time intervals, blood samples are taken from the orbital sinus and are assayed for antibiotic activity as follows: A 7 mm. disc containing 20 μl of whole blood is placed on agar seeded with Aspergillus montevidensis A35137. After 40 hours incubation at 30° C. zones of inhibition from the blood samples are compared to a standard obtained from the test compound, and the amount of compound in the blood sample is calculated.

[15] = in vivo; details: mouse, po, 416 mg/kg
Method: as §9

[16] = Blood levels after oral administration in mice; details: mouse, in vivo, po, 416 mg/kg
Method: as §9

[17] = Toxicity in dog on intravenous administration; assay type: in vivo; details: 100 mg/kg per day for five days
[18] = subcutaneous at 0, 4 and 24 hours post infection, dose to cure 50% of test animals, by increase in survival time, read-out: ED50
[19] = subcutaneous at 0, 4 and 24 hours post infection, lowest dose with significant anti-fungal effect, read-out: Lowest Active Dose
[20] = CRASSA846, Neurospora Crassa 846, 1 mg/ml, * measurable zone of inhibition with regrowth of organism around disc, read-out: Size of Zone of Inhibition (*)
[21] = 1 mg/ml, 7 mm disc, * measurable zone of inhibition with regrowth of organism around disc, read-out: Size of Zone of Inhibition (*)
[22] = Saccharomyces pastorianus X-52, read-out: Size of Zone of Inhibition
[23] = 1 mg/ml, 7 mm disc, * measurable zone of inhibition with regrowth of organism around disc

For `C[C@@H](O)[C@@H]1NC(=O)[C@H]([C@H](O)[C@@H](O)c2ccc(O)cc2)NC(=O)[C@@H]2C[C@@H](O)CN2C(=O)[C@H]([C@@H](C)O)NC(=O)[C@@H](N)C[C@@H](O)[C@@H](O)NC(=O)[C@@H]2[C@@H](O)[C@@H](C)CN2C1=O` [A-30912A nucleus] (H-[Orn(4R-OH,5R-OH)]T[Hyp][hTyr(3S-OH,4S-OH)]T[Pro(3S-OH,4S-Me)]; lactam 1-C), the antifungal activity [1] was “substantially devoid of antifungal activity”.

Work on `CCCCCCCCCCCC(=O)NCCCCC(=O)N[C@H]1C[C@@H](O)[C@@H](O)NC(=O)[C@@H]2[C@@H](O)[C@@H](C)CN2C(=O)[C@H]([C@@H](C)O)NC(=O)[C@H]([C@H](O)[C@@H](O)c2ccc(O)cc2)NC(=O)[C@@H]2C[C@@H](O)CN2C(=O)[C@H]([C@@H](C)O)NC1=O` [Example 62, N-(n-dodecanoyl)-5-amino-n-pentanoyl derivative of A-30912A nucleus] ({Lauroyl-Ava}-[Orn(4R-OH,5R-OH)]T[Hyp][hTyr(3S-OH,4S-OH)]T[Pro(3S-OH,4S-Me)]; lactam 1-C) yielded an ED50 [2, 18] of 22 mg/kg, a minimal effective dose [2, 19] of 20 mg/kg and a zone of inhibition at 1000 µg/mL [3, 20] of 27 mm. It also gave an MIC [4] of 0.078 μg/disc, an MIC [5] of 1.25 μg/disc and a zone of inhibition at 1000 µg/mL [6, 21] of 60 mm. The zone of inhibition at 1000 µg/mL [7, 22] was 15 mm, the MIC ([8]; SBH28, agar dilution, strain SBH 28, read-out: MIC) was 2.5 µg/mL (≈ 2.32 µM) and the MIC ([9]; SBH31, agar dilution, strain SBH 31, read-out: MIC) was 2.5 µg/mL (≈ 2.32 µM). It also gave an MIC ([10]; SBH29, agar dilution, strain SBH 29, read-out: MIC) of 2.5 µg/mL (≈ 2.32 µM), an MIC ([11]; SBH16, agar dilution, strain SBH 16, read-out: MIC) of 2.5 µg/mL (≈ 2.32 µM) and an MIC ([12]; agar dilution, strain A26, read-out: MIC) of 1.25 µg/mL (≈ 1.16 µM). The “Size of Zone of Inhibition” value [13] was 25 mm and the “Blood Levels” value [14] was 0 ng/mL.

In the case of `CCCCCCCCCCCC(=O)NCCCCCCCCCCC(=O)N[C@H]1C[C@@H](O)[C@@H](O)NC(=O)[C@@H]2[C@@H](O)[C@@H](C)CN2C(=O)[C@H]([C@@H](C)O)NC(=O)[C@H]([C@H](O)[C@@H](O)c2ccc(O)cc2)NC(=O)[C@@H]2C[C@@H](O)CN2C(=O)[C@H]([C@@H](C)O)NC1=O` [Example 63] ({Lauroyl-Aun}-[Orn(4R-OH,5R-OH)]T[Hyp][hTyr(3S-OH,4S-OH)]T[Pro(3S-OH,4S-Me)]; lactam 1-C), the ED50 [2, 18] is reported as greater than 40 mg/kg, the minimal effective dose [2, 19] is reported as greater than 40 mg/kg and the “Size of Zone of Inhibition” value ([3]; Neurospora Crassa 846, 1 mg/ml suspension in methanol, 24-48 hours at 25-37° C., no regrowth mark) is reported as 28 mm. It also gave a zone of inhibition at 1000 µg/mL ([3]; CRASSA846, 48 h, Neurospora Crassa 846, 1 mg/ml suspension in methanol, 24-48 hours at 25-37° C., no regrowth mark, read-out: Size of Zone of Inhibition) of 35 mm, a zone of inhibition at 1000 µg/mL [3, 20] of 28 mm and an MIC [4] of 0.156 μg/disc. For the same compound, the MIC [5] was 2.5 μg/disc and 1.25 μg/disc, the “Size of Zone of Inhibition (*)” value [6, 23] was 63 mm and the zone of inhibition at 1000 µg/mL [6, 21] was 55 mm. The zone of inhibition at 1000 µg/mL ([6]; 48 h, 1 mg/ml suspension in methanol, 7 mm disc, 24-48 hours at 25-37° C., no regrowth mark, read-out: Size of Zone of Inhibition) was 56 mm, the “Size of Zone of Inhibition” value ([7]; Saccharomyces pastorianus X-52) was 18 mm and the zone of inhibition at 1000 µg/mL [7, 22] was 15 mm. For the same compound, the “Size of Zone of Inhibition” value [13] was 24 mm and 25 mm, the concentration at 4 h [15] was 400 ng/mL and the “Blood Levels” value [14] was 0 ng/mL.

For `CCCCCCCCCCCC(=O)Nc1ccc(C(=O)N[C@H]2C[C@@H](O)[C@@H](O)NC(=O)[C@@H]3[C@@H](O)[C@@H](C)CN3C(=O)[C@H]([C@@H](C)O)NC(=O)[C@H]([C@H](O)[C@@H](O)c3ccc(O)cc3)NC(=O)[C@@H]3C[C@@H](O)CN3C(=O)[C@H]([C@@H](C)O)NC2=O)cc1` [Example 64, N-(n-dodecanoyl)-p-aminobenzoyl derivative of A-30912A nucleus] ({Lauroyl-4Abz}-[Orn(4R-OH,5R-OH)]T[Hyp][hTyr(3S-OH,4S-OH)]T[Pro(3S-OH,4S-Me)]; lactam 1-C), the ED50 [2] was 15 mg/kg, the minimal effective dose ([2]; read-out: Lowest Active Dose, subcutaneous at 0, 4 and 24 hours post infection, lowest dose with significant anti-fungal effect) was 10 mg/kg and the “Size of Zone of Inhibition (*)” value ([3]; Neurospora Crassa 846, 1 mg/ml, * measurable zone of inhibition with regrowth of organism around disc) was 35 mm. The zone of inhibition at 1000 µg/mL ([3]; CRASSA846, read-out: Size of Zone of Inhibition (*), Neurospora Crassa 846, 1 mg/ml, * measurable zone of inhibition with regrowth of organism around disc) was 33 mm, the concentration at 4 h [16] was 830 ng/mL and the SGPT levels [17] was “increased SGPT levels were observed”. The “outward signs of toxicity” value [17] was “no outward signs of toxicity”, the MIC [5] was 0.625 μg/disc and 1.25 μg/disc and the “Size of Zone of Inhibition (*)” value [6, 23] was 56 mm. For the same compound, the zone of inhibition at 1000 µg/mL ([6]; read-out: Size of Zone of Inhibition (*), Trichophyton mentagrophytes, 1 mg/ml, 7 mm disc, * measurable zone of inhibition with regrowth of organism around disc) was 55 mm, the “Size of Zone of Inhibition” value ([7]; Saccharomyces pastorianus X-52) was 17 mm and the zone of inhibition at 1000 µg/mL ([7]; read-out: Size of Zone of Inhibition, Saccharomyces pastorianus X-52) was 21 mm. It also gave an MIC ([8]; SBH28) of 0.625 µg/mL (≈ 0.569 µM), an MIC ([9]; SBH31) of 0.625 µg/mL (≈ 0.569 µM) and an MIC ([10]; SBH29) of 0.625 µg/mL (≈ 0.569 µM). The MIC ([11]; SBH16) was 0.625 µg/mL (≈ 0.569 µM), the MIC ([12]; A26) was 0.312 µg/mL (≈ 0.284 µM) and the “Size of Zone of Inhibition” value [13] was 23 mm and 19 mm.

Source: US4293483A, “Derivatives of A-30912A nucleus” (priority 1980, dated 1981)
